# Data taken from patent publication EP4574212A1, “HISTONE DEACETYLASE INHIBITORS” (Centre National de la Recherche Scientifique, priority 2023, dated 2025).
# Peptide text beside a SMILES is read from it. * marks the point of attachment. X1 = Nc1ccccc1NC(=O)c1ccc(CC(=O)*)cc1
# Experiments:
# HDAC [1] = assay: Fluorescence-based HDAC inhibition assay in solution using HeLa nuclear extracts; type: biochemical
# HDAC [2] = assay: as above
# Description: Compound HDAC inhibition activities were determined with a fluorescence-based assay in solution, using HeLa nuclear extracts purchased from IpraCell. […] Trypsin solution was then added (0.29 µg/µl final concentration) to release AMC adduct of non-acetylated peptides. After 15 min incubation at room temperature 150 µl of absolute ethanol were added and AMC-fluorescence level was measured on a Safas Xenius spectrofluorometer (λexc./λem. = 380/460 nm).
# [3] = benzamide-based multivalent HDACi, procedure of Example 8 (HeLa nuclear extracts, TosGPK(Ac)-AMC substrate)
# [4] = hydroxamic acid-based multivalent HDACi, HeLa nuclear extracts, TosGPK(Ac)-AMC substrate 43 µM, 45 min at 37 °C, average of at least 2 experiments
molecule,measurement,setting,value
"Nc1ccccc1NC(=O)c1ccc(CNC(=O)OCc2cccnc2)cc1 [MS275, reference compound]",EC50,HDAC [1]; [3],7230 ± 2070 nM
"C[C@@H]1NC(=O)[C@H](CCCCNC(=O)CCCCCCC(=O)NO)NC(=O)CNC(=O)[C@@H]2CCCN2C(=O)[C@H](CCCCNC(=O)CCCCCCC(=O)NO)NC(=O)[C@H](C)NC(=O)[C@H](CCCCNC(=O)CCCCCCC(=O)NO)NC(=O)CNC(=O)[C@@H]2CCCN2C(=O)[C@H](CCCCNC(=O)CCCCCCC(=O)NO)NC1=O [MuH2120, RAFT-(methyl 8-(hydroxyamino)-8-oxooctanoate)4]",EC50,HDAC [2]; [4],2840 nM
"C[C@@H]1NC(=O)[C@H](CCCCNC(=O)CCCCCCC(=O)NO)NC(=O)CNC(=O)[C@@H]2CCCN2C(=O)[C@H](CCCCNC(=O)CCCCCCC(=O)NO)NC(=O)[C@H](C)NC(=O)[C@H](CCCCNC(=O)CCCCCCC(=O)NO)NC(=O)CNC(=O)[C@@H]2CCCN2C(=O)[C@H](CCCCNC(=O)CCCCCCC(=O)NO)NC1=O [MuH2121, RAFT-(methyl 8-(hydroxyamino)-8-oxooctanoate)4]",EC50,HDAC [2]; [4],5760 nM
"C[C@@H]1NC(=O)CNC(=O)[C@@H]2CCCN2C(=O)[C@H](CCCCNC(=O)Cc2ccc(C(=O)Nc3ccccc3N)cc2)NC(=O)[C@H](C)NC(=O)[C@H](C)NC(=O)CNC(=O)[C@@H]2CCCN2C(=O)[C@H](CCCCNC(=O)Cc2ccc(C(=O)Nc3ccccc3N)cc2)NC(=O)[C@H](C)NC1=O [MuH2224, RAFT-(4-(2-X-2-oxoethyl)-N-(2-aminophenyl)benzamide)2] (cyclo(AAK(X1)PGAAK(X1)PG))",EC50,HDAC [2]; [3],7810 ± 5270 nM
"Nc1ccccc1NC(=O)c1ccc(CC(=O)NCCCNC(=O)Cc2ccc(C(=O)Nc3ccccc3N)cc2)cc1 [MuH2320, 4,4'-((Propane-1,3-diylbis(azanediyl))bis(2-oxoethane-2,1-diyl))bis(N-(2-aminophenyl)benzamide)]",EC50,HDAC [1]; [3],9210 ± 2550 nM
"O=C(CCCCCCc1cn(CCCCCCC(=O)NO)nn1)NO [MuH2321, 7,7'-(1H-1,2,3-Triazole-1,4-diyl)bis(N-hydroxyheptanamide)]",EC50,HDAC [1]; [4],230 ± 160 nM
"O=C(CCCCCCC(=O)Nc1ccccc1NC(=O)CCCCCCC(=O)NO)NO [MuH2322, N^1,N^1'-(1,2-Phenylene)bis(N^8-hydroxyoctanediamide)]",EC50,HDAC [1]; [4],520 ± 110 nM
"O=C(CCCCCCC(=O)Nc1ccc(NC(=O)CCCCCCC(=O)NO)cc1)NO [MuH2323, N^1,N^1'-(1,4-Phenylene)bis(N8-hydroxyoctanediamide)]",EC50,HDAC [1]; [4],480 ± 320 nM
"O=C(CCCCCCC(=O)Nc1cccc(NC(=O)CCCCCCC(=O)NO)c1)NO [MuH2324, N^1,N^1'-(1,3-Phenylene)bis(N8-hydroxyoctanediamide)]",increase in activity compare to the SAHA,"HDAC [1]; HDAC inhibition, versus monovalent inhibitor SAHA",14 fold
same,EC50,HDAC [1]; [4],60 ± 10 nM
"O=C(CCCCCCC(=O)Nc1cc(NC(=O)CCCCCCC(=O)NO)c(NC(=O)CCCCCCC(=O)NO)cc1NC(=O)CCCCCCC(=O)NO)NO [MuH2344, N1,N1',N1"",N1‴-(Benzene-1,2,4,5-tetrayl)tetrakis(N8-hydroxyoctanediamide)]",EC50,HDAC [1]; [4],2250 ± 650 nM
"Nc1ccccc1NC(=O)CCCCCCC(=O)Nc1cccc(NC(=O)CCCCCCC(=O)Nc2ccccc2N)c1 [MuH2345, N^1,N^1'-(1,3-Phenylene)bis(N8-(2-aminophenyl)octanediamide)]",EC50,HDAC [1]; [3],31500 ± 29900 nM
RAFT-(4-(2-((5-X-5-oxopentyl)amino)-2-oxoethyl)-N-(2-aminophenyl)benzamide)4 [MuH2220],EC50,HDAC [2]; [3],1220 ± 700 nM
RAFT-(4-(2-X-2-oxoethyl)-N-(2-aminophenyl)benzamide)4 [MuH2122],EC50,HDAC [2]; [3],1590 ± 870 nM
"RAFT-(4-pentyn-1-ol)4 [MuH2123, reference compound]",EC50 (µM),HDAC [2]; [4],Inact
"RAFT-(N-(2-aminophenyl)-4-(2-(((1-X-1H-1,2,3-triazol-4-yl)methyl)amino)-2-oxoethyl) benzamide)4 [MuH2222]",EC50,HDAC [2]; [3],1760 ± 890 nM
RAFT-(N^1-(4-(2-amino-2-oxoethyl)phenyl)-N^8-hydroxyoctane diamide))2 [MuH2357],EC50,HDAC [2]; [4],230 ± 70 nM
